Data set [1] concerns amnesia of rats induced by scopolamine. Kind of data set: Effects on scopolamine-induced amnesia (passive avoidance task, oral administration). It counts as in vivo. Particulars: Rattus norvegicus, po, 60 min before retention trial, scopolamine hydrobromide 2 mg/kg i.p., passive avoidance latency, male Strague Dawley rats, read-out: Inhibitory rate (%); for inhibition in vivo at 0.01 mg/kg: 0.01 mg/kg p.o.; for inhibition in vivo at 1 mg/kg: 1 mg/kg p.o. From the text: Male rats of the Strague Dawley strain at 8 weeks of age (260±2 g body weight) were used for evaluation through passive avoidance task. The apparatus of passive avoidance task comprises illuminated and dark chambers which are separated from each other by a wall with a door. Floors are constituted by grids made of stainless steel; only the grid in the dark chamber is furnished with wiring for electrification.
Effected on the first and second days of testing was preparative training; each rat was placed in the illuminated chamber and left for 3 minutes to habituate to the apparatus. On the third day of testing, the rats were individually placed in the illuminated chamber and after entering the dark chamber, the door was closed and the floor grid was electrified to deliver electric shock (100 V, 0.4 mA, a period of 0.8 sec). In order to induce amnesia, scopolamine hydrobromide (2 mg/kg) was intraperitoneally injected 20 minutes before the electric shock was delivered. Retention in memory on the electric shock was tested 24 hours later; more specifically, retention in passive avoidance trial was measured in terms of a time interval (latency) from placement of each rat in the illuminated chamber to its entry into the dark chamber. The latency over 300 seconds was recorded as 300 seconds. Respective test compounds were suspended in an aqueous solution of 1% carboxymethyl cellulose and orally administered at a dose of 0.01 or 1 mg/kg 60 minutes before the trial.
Antiamnesic effects of the test compounds were evaluated by inhibitory rate (%) which is calculated by the following formula: [formula]
wherein T stands for latency and SC stands for administration of scopolamine hydrobromide. Experimental results are shown in the following table in which, as to each of the test compounds, only the dose showing higher inhibitory rate was indicated.

Another data set concerns rats of the ICR strain. Briefly: Toxicity test on rats in a single dose through oral administration. It counts as in vivo. Particulars: oral administration of 2,000 mg/kg, suspended in 1% HPC, observation for 14 days. As for the experimental part: Used in the test were rats of the ICR strain at 6 weeks of age (27.9±0.4 g body weight). They were allowed to freely take food and water; however, fasting was made for a period of 17 hours before administration of the test compounds and for a period of 4 hours after the administration. The respective test compounds were suspended in 1% of hydroxypropyl cellulose (HPC)and orally administered. Until 6 hours after the administration of the test compounds, observation was made frequently, and after that once a day and totally for 14 days.
Used as the test compounds were Compounds 8 and 10.

Take `CC1=CC=CN2C1=NC(=O)C2(Cc1ccccc1)Cc1ccccc1` [Compound 8, 3,3-Dibenzyl-8-methylimidazo[1,2-a]pyridin-2(3H)-one]: the inhibition in vivo at 0.01 mg/kg in data set [1] turned out to be 34.8%. Further, the “death after single oral dose” value with rats of the ICR strain is “None of them induced death”.
The term melting point denotes the temperature of the solid-liquid transition. `NC1=CC=CN2C1=NC(=O)C2(Cc1ccccc1)Cc1ccccc1` [Compound 41, 8-Amino-3,3-dibenzylimidazo[1,2-a]pyridin-2(3H)-one] came in with a melting point of 283 to 285 °C. The inhibition in vivo at 0.01 mg/kg in data set [1] was found to be 30%.
Consider `C#CCC1(CC#C)C(=O)N=C2C=CC=CN21` [Compound 35, 3,3-di(2-Propynyl)imidazo[1,2-a]pyridin-2(3H)-one], for which the melting point is 172 to 175 °C. Moreover, in data set [1], the inhibition in vivo at 0.01 mg/kg came out at 30.3%.
With `C=CCC1(CC=C)C(=O)N=C2C=CC=CN21` [Compound 23, 3,3-Diallylimidazo[1,2-a]pyridin-2(3H)-one], the melting point was in the range of 64 to 66 °C. In data set [1], the inhibition in vivo at 0.01 mg/kg stood at 53.6%.
Taken in the same sequence, the figures for `CCCCC1(CCCC)C(=O)N=C2C=CC=CN21` [Compound 34, 3,3-Dibutylimidazo[1,2-a]pyridin-2(3H)-one] were 100.5 to 102 °C and 59.6%.
Taken in the same sequence, the figures for `O=C1N=C2C=CC=CN2C1(Cc1ccccc1)Cc1ccc(F)cc1` (centres unmarked) [Compound 39, 3-Benzyl-3-(4-fluorobenzyl)imidazo[1,2-a]pyridin-2(3H)-one] were > 300 °C and 43.7%.
Compound `O=C1N=C2C(NCc3ccccc3)=CC=CN2C1(Cc1ccccc1)Cc1ccccc1` [Compound 37, 3,3-Dibenzyl-8-benzylaminoimidazo[1,2-a]pyridin-2(3H)-one] showed a melting point of 250 °C. Further, the inhibition in vivo at 0.01 mg/kg in data set [1] came to 56%.
Taken in the same sequence, the figures for `O=C1N=C2C=CC=CN2C1(Cc1ccco1)Cc1ccco1` [Compound 32, 3,3-bis(2-Furylmethyl)imidazo[1,2-a]pyridin-2(3H)-one] were 205 °C (dec.) and 77.4%.
Take `C=CCOC1=CC=CN2C1=NC(=O)C2(Cc1ccccc1)Cc1ccccc1` [Compound 5, 8-Allyloxy-3,3-dibenzylimidazo[1,2-a]pyridin-2(3H)-one]: the melting point was 214 to 215 °C. The inhibition in vivo at 1 mg/kg in data set [1] was 34.8%.
Take `O=C1N=C2C=CC=CN2C1(Cc1ccc([N+](=O)[O-])cc1)Cc1ccc([N+](=O)[O-])cc1` [Compound 38, 3,3-bis(4-Nitrobenzyl)imidazo[1,2-a]pyridin-2(3H)-one]: the melting point was > 300 °C. Further, in data set [1], the inhibition in vivo at 1 mg/kg is 58.5%.
Compound `O=C1N=C2C=CC=CN2C1(CCCc1ccccc1)CCCc1ccccc1` [Compound 26, 3,3-bis(3-Phenyl-1-propyl)imidazo[1,2-a]pyridin-2(3H)-one] registered a melting point of 227 to 228 °C. The inhibition in vivo at 0.01 mg/kg in data set [1] worked out at 53.5%.
`COc1ccc(CC2(Cc3ccc(OC)cc3)C(=O)N=C3C=CC=CN32)cc1` [Compound 19, 3,3-bis(4-Methoxybenzyl)imidazo[1,2-a]pyridin-2(3H)-one] had a melting point of 248 to 251 °C. The inhibition in vivo at 1 mg/kg in data set [1] is 64.3%.
For `O=C1N=C2C=CC=CN2C1(Cc1ccc(F)cc1)Cc1ccc(F)cc1` [Compound 16, 3,3-bis(4-Fluorobenzyl)imidazo[1,2-a]pyridin-2(3H)-one], the melting point fell in the range of 290 to 292 °C. Besides, in data set [1], the inhibition in vivo at 0.01 mg/kg turned out to be 55.4%.
With `O=C1N=C2C=CC=CN2C1(Cc1ccccc1)Cc1ccccc1` [Compound 10, 3,3-Dibenzylimidazo[1,2-a]pyridin-2(3H)-one], the inhibition in vivo at 0.01 mg/kg in data set [1] worked out at 78.7%. Besides, the “death after single oral dose” value in the data set with rats of the ICR strain was “None of them induced death”.
In the case of `CC1=CC2=NC(=O)C(Cc3ccccc3)(Cc3ccccc3)N2C(C)=C1` [Compound 9, 3,3-Dibenzyl-5,7-dimethylimidazo[1,2-a]pyridin-2(3H)-one], the melting point lay in the range of 237 to 238 °C. For the same compound, in data set [1], the inhibition in vivo at 1 mg/kg turned out to be 66.4%.
Turning to `CC(=O)NC1=CC=CN2C1=NC(=O)C2(Cc1ccccc1)Cc1ccccc1` [Compound 31, 8-Acetylamino-3,3-dibenzylimidazo[1,2-a]pyridin-2(3H)-one], the melting point lay within 235 to 237 °C. The inhibition in vivo at 1 mg/kg in data set [1] is 60.4%.

Values taken from patent US6635652B1, “Azaindolizinone derivatives and cerebral function improvers containing the same as the active ingredient” (Zenyaku Kogyo Kabushiki Kaisha, priority 1999, dated 2003).
